In patent publication US20220324865A1 (Bayer Aktiengesellschaft, priority 2018, published 2022):

Biological target: T1, human EP3 receptor (Homo sapiens, UniProt P43115)
T1 construct: expressed in transfected cells; host or cells: CHO K1 (Chinese Hamster Ovary), stably co-transfected with Galpha16 and mitochondrial clytin
T1 sequence (P43115 1-390): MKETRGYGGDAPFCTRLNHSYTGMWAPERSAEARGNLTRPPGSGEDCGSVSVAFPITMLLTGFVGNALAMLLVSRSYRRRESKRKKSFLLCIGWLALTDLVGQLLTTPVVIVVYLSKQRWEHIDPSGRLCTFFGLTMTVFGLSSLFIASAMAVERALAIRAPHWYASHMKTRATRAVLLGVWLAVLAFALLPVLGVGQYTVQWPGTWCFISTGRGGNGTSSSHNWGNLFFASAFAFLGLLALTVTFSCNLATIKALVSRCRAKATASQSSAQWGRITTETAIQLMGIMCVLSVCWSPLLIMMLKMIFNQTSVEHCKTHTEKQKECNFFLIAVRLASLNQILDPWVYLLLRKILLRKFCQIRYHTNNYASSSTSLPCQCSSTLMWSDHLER
Assay: Cellular in vitro assay for determining EP3 receptor activity (human EP3 cell line, sulprostone-stimulated calcium luminescence)
Format: cell-based
Settings: CHO cells expressing human EP3 and mitochondrial Clytin; antagonist mode, sulprostone at EC50; read-out: EP3 CHO mtCLY ANTAG IC50
Procedure, shortened: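 Antagonist activity was measured as inhibition of the luminescent calcium signal elicited by EC50 sulprostone, following 10 min compound pretreatment. The cell line was recombinant CHO K1 co-expressing human EP3, Gα16 and the photoprotein Clytin, reconstituted with coelenterazine.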

| SMILES | IC50 [nM] |
| --- | --- |
| Cc1ccc(-c2cn3nc(C(=O)N[C@@H](c4ccc(F)cc4)C(C)(C)O)c(C)c3c(=O)[nH]2)cc1F [Example 1-162, 6-(3-Fluoro-4-methylphenyl)-N-[(1S)-1-(4-fluorophenyl)-2-hydroxy-2-methylpropyl]-3-methyl-4-oxo-4,5-dihydropyrazolo[1,5-a]pyrazine-2-carboxamide] | 0.89 |
| CC[C@@H](C)NC(=O)c1nn2cc(-c3ccc(Cl)c(C)c3)[nH]c(=O)c2c1C(F)(F)C(F)(F)F [6-479] | 2.3 |
| O=C(NCc1nc2ccccc2[nH]1)c1cc2c(=O)[nH]c(-c3ccc4ccccc4c3)cn2n1 [Example 2-24, N-(1H-Benzimidazol-2-ylmethyl)-6-(2-naphthyl)-4-oxo-4,5-dihydropyrazolo[1,5-a]pyrazine-2-carboxamide] | 2.45 |
| Cc1ccc(-c2cn3nc(C(=O)NCC(C)(C)O)c(C4CC4)c3c(=O)[nH]2)cc1Cl [6-285] | 3.35 |
| CC(C)C(NC(=O)c1nn2cc(-c3ccc4ccccc4c3)[nH]c(=O)c2c1C#N)c1ccc(F)cc1 (centres unmarked) [Example 3-59, 3-Cyano-N-[1-(4-fluorophenyl)-2-methylpropyl]-6-(2-naphthyl)-4-oxo-5H-pyrazolo[1,5-a]pyrazine-2-carboxamide] | 1.25 |
| CC(NC(=O)c1cc2c(=O)[nH]c(-c3ccc4ccccc4c3)cn2n1)c1ccc(Cl)c(Cl)c1 (centres unmarked) [Example 2-36, N-[1-(3,4-Dichlorphenyl)ethyl]-6-(2-naphthyl)-4-oxo-4,5-dihydropyrazolo[1,5-a]pyrazine-2-carboxamide] | 2.8 |
| Cc1cccc2ncc(-c3cn4nc(C(=O)Nc5ccnn5C(C)C)c(C(C)C)c4c(=O)[nH]3)cc12 [Example 4-15, 6-(5-Methylquinolin-3-yl)-4-oxo-3-(propan-2-yl)-N-[1-(propan-2-yl)-1H-pyrazol-5-yl]-4,5-dihydropyrazolo[1,5-a]pyrazine-2-carboxamide] | 2.9 |
| CCn1cc(CNC(=O)c2nn3cc(-c4cnc5cccc(C)c5c4)[nH]c(=O)c3c2C(C)C)c(C)n1 [Example 4-36, N-[(1-Ethyl-3-methyl-1H-pyrazol-4-yl)methyl]-6-(5-methylquinolin-3-yl)-4-oxo-3-(propan-2-yl)-4,5-dihydropyrazolo[1,5-a]pyrazine-2-carboxamide] | 0.785 |
| CCC(NC(=O)c1cc2c(=O)[nH]c(-c3ccc4ccccc4c3)cn2n1)C(F)(F)F (centres unmarked) [6-61] | 4.13 |
| O=C(N[C@H](CCO)c1ccc(F)cc1)c1cc2c(=O)[nH]c(-c3ccc4c(c3)CCC4)cn2n1 [Example 1-97, 6-(2,3-Dihydro-1H-inden-5-yl)-N-[(1R)-1-(4-fluorophenyl)-3-hydroxpropyl]-4-oxo-4,5-dihydropyrazolo[1,5-a]pyrazine-2-carboxamide] | 0.88 |
| COCc1c(C(=O)N[C@@H](c2ccc(F)cc2)C(F)(F)CO)nn2cc(-c3ccc(Cl)c(F)c3)[nH]c(=O)c12 [6-624] | 6.7 |
| N#Cc1c(C(=O)NC2(c3ccc(F)cc3)CC2)nn2cc(-c3ccc4ccccc4c3)[nH]c(=O)c12 [6-70] | 4.75 |
| Cc1cc(-c2cn3nc(C(=O)NCC(O)C(F)(F)F)c(C4CC4)c3c(=O)[nH]2)ccc1F (single isomer, unassigned) [6-655] | 9.35 |
| Cc1ccc(-c2cn3nc(C(=O)NC4(c5ccc(F)cc5)CN(C)C4)c(C)c3c(=O)[nH]2)cc1Cl [Example 1-150, 6-(3-Chloro-4-methylphenyl)-N-[3-(4-fluorophenyl)-1-methylazetidin-3-yl]-3-methyl-4-oxo-4,5-dihydropyrazolo[1,5-a]pyrazine-2-carboxamide] | 7.23 |
| CCN1CCC(NC(=O)c2nn3cc(-c4ccc(Cl)c(C)c4)[nH]c(=O)c3c2C2CC2)(C(F)(F)F)C1 (single isomer, unassigned) [6-294] | 9.95 |
| CC(C)c1c(C(=O)NC2(c3ccc(F)cc3)CN(C)C2)nn2cc(-c3ccc(Cl)c(F)c3)[nH]c(=O)c12 [6-538] | 2.77 |
| CC(C)(O)[C@@H](NC(=O)c1nn2cc(-c3ccc(Cl)c(F)c3)[nH]c(=O)c2c1C1CCC1)c1ccc(F)cc1 [6-572] | 2.8 |
